Results reported in patent publication US20230348418A1, “ISOINDOLINONE COMPOUNDS” (Monte Rosa Therapeutics, Inc., priority 2021, published 2023).
Where two headings read alike, the source gives them in different places.

Experiments:
CRBN-DDB1 = CRBN-DDB1 (Homo sapiens, UniProt Q96SW2); test: HTRF binding of compounds to CRBN
Protocol: Compound activity was monitored in a Homogenous Time-Resolved Fluorescence (HTRF) assay using 1-[5-({2-[2-(2-{[2-(2,6-dioxopiperidin-3-yl)-1,3-dioxo-2,3-dihydro-1H-isoindol-4-yl]oxy}acetamido)ethoxy]ethyl}carbamoyl)pentyl]-3,3-dimethyl-2-[(1E,3E)-5-[(2E)-1,3,3-trimethyl-5-sulfo-2,3-dihydro-1H-indol-2-ylidene]penta-1,3-dien-1-yl]-3H-indol-1-ium-5-sulfonate as a fluorescent probe. […] Compounds were stored in dry, ambient temperatures at 10 mM. A 10-point, 1:3 dilution series was prepared from 10 mM stock concentrations in Echo-compatible LDV plates. 10 nL of each compound dilution series was dispensed into assays wells using an Echo 650 (Labcyte inc. USA). […] The assay was then allowed to incubate for 30 min at ambient temperature after transferring compound. […] Analysis and IC50 values were derived using KNIME analytics (KNIME Zurich) transformation and fitting within Collaborative Drug Discovery (Collaborative Drug Discovery USA). Ki was derived from the geometric mean of the IC50 values using the Cheng-Prustoff transformation.

GSPT1 [1] = target: T1, GSPT1 (Homo sapiens, UniProt P15170+Q96SW2); test: Immunofluorescence assay for GSPT1 degradation in CAL-51 cells (Example 10); type: cell-based; set-up: host or cells: CAL-51
Protocol: The representative compounds were tested in an immunofluorescence assay for their activity to degrade GSPT1. […] Compounds were stored at 10 mM DMSO stocks. […] Cells were subsequently rinsed with PBS and fixed in 10% Formalin solution (50 μl, Sigma HT5011)) for 20 mins at room temperature. […] Following three further PBS washes, 50 μL blocking buffer (1% BSA, Sigma A4503, in PBS) was added for 45 min for signal-to noise reduction. Primary antibody (human GSPT1, Sigma HPA052488) was diluted in blocking buffer (dil.1/300, 35 μL/well) and incubated with the cells overnight at 4° C. […] After three final PBS washes, samples were conserved in 100 μL PBS in the dark, until measurement. Image acquisition was performed on the Operetta High-Content Imager (Perkin-Elmer). […] For the determination of GSPT1 DC50 values, a custom algorithm implemented in the PerkinElmer image analysis software Harmony-Acapella® was developed. After user-defined setting of adjustment parameters, the analysis was run identically without human intervention for all image fields.
DAPI staining of the nuclei was used to determine the location of cells using standard nuclei detection modules. Segmentation artifacts were removed by threshold-based filters for area, roundness and intensity. The outline of the cells was determined analogously from the sum of the normalized, smoothed DAPI and Actin channel, starting from each nucleus. […] GSPT1 degradation (DC50) was calculated after normalization to controls and data import in CDD vault Database, using non-linear regression.

IKZF1 (Ikaros) = target: T2, IKZF1 (Ikaros) (Homo sapiens, UniProt Q13422); test: Western blot selectivity assay in MM1S cells: IKZF1; type: cell-based; set-up: key: A represents a no degradation observed at 30 μM; B represents trace degradation at 30 μM (below 20%); C represents weak degradation at 30 μM (below 50%); D represents degradation at 30 μM (>90%); E represents degradation at 3 μM (>90%); F represents degradation at 0.3 μM (>90%); conditions: MM1S cells, 0.3, 3 and 30 μM, 6 hours
T2 construct: endogenous in cells; host or cells: MM1S (ATCC CRL-2974)
Protocol: (§1) MM1S cells were purchased from ATCC (cat. Number CRL-2974), sub-cultured in 90% RPMI 1640 with 10% FBS, supplemented with 1×P/S and incubated at 37° C., 5% CO2. Compounds were stored as 10 mM DMSO stock. For the assay, MM1S cells (3 million cells/well) were plated in 6-well plates and incubated over night. Cells were treated with respective compounds using a serial dilution: 0.3 μM, 3 μM and 30 μM as well as a vehicle only (DMSO) control for 6 hours. Media with suspension cells was subsequently transferred to 15 mL conical tubes, wells rinsed twice with ice-cold PBS and merged with cell suspension in respective 15 mL conical tube. Cells were spinned down, supernatant aspirated, pellets resuspended in ice-cold PBS and transferred to microtubes. Cells were spinned down, supernatant aspirated and pellets resuspended in 120 μL RIPA lysis buffer supplemented with protease and phosphatase inhibitors. Cell lysates were incubated on ice for 20 minutes followed by centrifugation at >20,000×g for 5 min. Supernatants were transferred to fresh microtubes and stored at −80° C. Total protein concentration was determined using a BCA assay with a BSA standard curve and concentration of all samples was adjusted to 1 mg/mL. 25 μL 4×LDS sample buffer supplemented with 100 mM DTT was added to 75 μL sample. Samples were centrifuged (8,000×g, 1 min) and incubated at 95° C. for 5 min followed by another centrifugation step (8,000×g, 1 min). 20 μL of each sample was loaded on a 4-12% gel alongside a protein molecular weight marker. Gels were run in the presence of MOPS buffer at 80 Volts for 30 min, followed by 120 Volts for 1.5 h and proteins subsequently transferred onto nitrocellulose membranes at 20 Volts for 7 min using an iBlot2 Gel Transfer Device. Membranes were then cut horizontally into two pieces, covering 80-50 kDa and 50-25 kDa. Blocking the membranes was performed by gently shaking in 5% (w/v) skim milk in TSB-T for 1 hr at room temperature. All primary antibodies were used at a 1/1000 in 5% (w/v) BSA dissolved in TBST and incubated with membranes over night at 4° C. Anti-IKZF1 (Ikaros; D6N9Y; 14859S), anti-IKZF3 (Aiolos; D1C1E; 15103S) antibodies were purchased from Cell Signalling Technology, anti-ZFP91 antibody from Bethyl laboratories, anti-GSPT1 from Sigma Aldrich (HPA052488) and anti CK1alpha from AbCam (ab206652). After three washes with 1×TBST for 5 min, HRP-coupled secondary antibodies diluted in 5% (w/v) BSA/TBST (Goat Anti-Rb IgG, dil. 1/10,000; Goat Anti-Mouse IgG, dil. 1/5000) were added for 1 hr at room temperature. After three washes with 1×TBST (5 minutes each), membranes were incubated with ECL reagent for 1 min at room temperature. Chemiluminescence signals were then detected using a LAS-4000 system with default settings and signals quantified using Image Studio Lite software (version 5.2). Membrane parts previously incubated with antibody against CK1alpha were stripped off antibodies by incubating with stripping buffer for 30 minutes followed by three washed with TBST (5 min each), blocking with 5% (w/v) skim milk for 1 hr, and incubation with primary antibody against GAPDH overnight at 4° C. Subsequent washes, incubation with secondary antibody and signal acquisition were performed as described above.

GSPT1 [2] = target: T1, GSPT1; test: Western blot selectivity assay in MM1S cells: GSPT1; type: cell-based; set-up: endogenous in cells; host or cells: MM1S (ATCC CRL-2974); conditions: MM1S cells, 0.3, 3 and 30 μM, 6 hours
Protocol: as §1

[3] = read-out: IF Class (GSPT1 degradation, DC50), 6 h
[4] = read-out: HTRF Class (Cereblon binding, HTRF IC50)
[5] = 6 h, read-out: IF Class (GSPT1 degradation, DC50)

CRBN-DDB1, sequence (Q96SW2 whole entry): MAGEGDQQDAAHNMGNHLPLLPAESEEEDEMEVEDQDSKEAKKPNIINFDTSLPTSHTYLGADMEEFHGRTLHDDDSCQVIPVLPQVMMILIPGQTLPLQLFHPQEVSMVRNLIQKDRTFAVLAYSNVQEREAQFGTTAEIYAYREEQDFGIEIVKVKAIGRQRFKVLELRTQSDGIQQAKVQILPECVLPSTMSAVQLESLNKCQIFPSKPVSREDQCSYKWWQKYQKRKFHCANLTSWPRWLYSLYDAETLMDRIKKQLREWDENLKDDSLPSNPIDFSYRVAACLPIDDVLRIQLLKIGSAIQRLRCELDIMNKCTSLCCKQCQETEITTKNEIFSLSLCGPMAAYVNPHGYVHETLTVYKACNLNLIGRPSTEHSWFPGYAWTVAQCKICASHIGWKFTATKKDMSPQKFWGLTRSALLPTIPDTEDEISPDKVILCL
CRBN-DDB1, sequence (Q16531 whole entry partner): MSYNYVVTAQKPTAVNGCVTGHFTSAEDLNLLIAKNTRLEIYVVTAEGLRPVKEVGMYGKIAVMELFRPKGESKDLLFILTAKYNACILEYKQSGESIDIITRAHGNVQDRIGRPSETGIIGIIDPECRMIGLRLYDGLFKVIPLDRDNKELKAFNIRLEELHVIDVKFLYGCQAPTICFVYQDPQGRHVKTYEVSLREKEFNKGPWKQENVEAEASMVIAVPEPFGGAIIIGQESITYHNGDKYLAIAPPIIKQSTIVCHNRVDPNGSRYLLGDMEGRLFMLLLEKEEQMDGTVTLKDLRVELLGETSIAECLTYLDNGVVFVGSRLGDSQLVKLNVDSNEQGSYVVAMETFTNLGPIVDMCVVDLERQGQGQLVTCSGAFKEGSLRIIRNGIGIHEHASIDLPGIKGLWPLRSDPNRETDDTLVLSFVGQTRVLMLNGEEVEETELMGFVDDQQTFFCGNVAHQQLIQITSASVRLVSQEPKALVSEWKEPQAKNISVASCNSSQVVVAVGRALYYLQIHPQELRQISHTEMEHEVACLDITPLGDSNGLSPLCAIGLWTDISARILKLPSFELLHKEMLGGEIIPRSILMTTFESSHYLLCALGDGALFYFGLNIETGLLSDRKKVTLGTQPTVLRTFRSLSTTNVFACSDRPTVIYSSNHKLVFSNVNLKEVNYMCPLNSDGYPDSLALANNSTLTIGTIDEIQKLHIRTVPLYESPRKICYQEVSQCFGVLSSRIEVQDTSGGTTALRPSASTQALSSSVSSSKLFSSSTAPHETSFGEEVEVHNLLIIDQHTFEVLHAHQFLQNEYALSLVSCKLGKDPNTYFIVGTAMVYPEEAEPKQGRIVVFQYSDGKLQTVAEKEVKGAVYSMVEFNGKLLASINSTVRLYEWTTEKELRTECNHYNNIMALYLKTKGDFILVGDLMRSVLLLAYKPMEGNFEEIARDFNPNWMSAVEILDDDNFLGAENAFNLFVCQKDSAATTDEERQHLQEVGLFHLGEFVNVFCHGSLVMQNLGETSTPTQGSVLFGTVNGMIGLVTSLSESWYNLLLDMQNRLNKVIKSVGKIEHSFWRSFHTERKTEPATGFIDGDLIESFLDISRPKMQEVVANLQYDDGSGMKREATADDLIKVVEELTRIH
T1 sequence (P15170 whole entry): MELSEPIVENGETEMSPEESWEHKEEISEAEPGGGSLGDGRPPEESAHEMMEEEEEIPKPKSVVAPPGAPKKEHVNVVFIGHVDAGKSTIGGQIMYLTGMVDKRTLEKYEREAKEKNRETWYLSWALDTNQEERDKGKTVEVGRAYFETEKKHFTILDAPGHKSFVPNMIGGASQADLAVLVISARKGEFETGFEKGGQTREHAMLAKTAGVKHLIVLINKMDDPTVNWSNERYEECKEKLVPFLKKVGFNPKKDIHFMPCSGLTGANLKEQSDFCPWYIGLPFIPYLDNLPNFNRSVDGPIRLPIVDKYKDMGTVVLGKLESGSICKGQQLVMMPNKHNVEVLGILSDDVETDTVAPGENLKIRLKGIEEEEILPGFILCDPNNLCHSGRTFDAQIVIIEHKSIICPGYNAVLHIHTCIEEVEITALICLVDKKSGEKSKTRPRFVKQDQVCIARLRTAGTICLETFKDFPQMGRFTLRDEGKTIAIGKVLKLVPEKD
T1 sequence (Q96SW2 whole entry): as the sequence (Q96SW2 whole entry) above
T1 sequence (Q16531 2-1140 partner limits assumed): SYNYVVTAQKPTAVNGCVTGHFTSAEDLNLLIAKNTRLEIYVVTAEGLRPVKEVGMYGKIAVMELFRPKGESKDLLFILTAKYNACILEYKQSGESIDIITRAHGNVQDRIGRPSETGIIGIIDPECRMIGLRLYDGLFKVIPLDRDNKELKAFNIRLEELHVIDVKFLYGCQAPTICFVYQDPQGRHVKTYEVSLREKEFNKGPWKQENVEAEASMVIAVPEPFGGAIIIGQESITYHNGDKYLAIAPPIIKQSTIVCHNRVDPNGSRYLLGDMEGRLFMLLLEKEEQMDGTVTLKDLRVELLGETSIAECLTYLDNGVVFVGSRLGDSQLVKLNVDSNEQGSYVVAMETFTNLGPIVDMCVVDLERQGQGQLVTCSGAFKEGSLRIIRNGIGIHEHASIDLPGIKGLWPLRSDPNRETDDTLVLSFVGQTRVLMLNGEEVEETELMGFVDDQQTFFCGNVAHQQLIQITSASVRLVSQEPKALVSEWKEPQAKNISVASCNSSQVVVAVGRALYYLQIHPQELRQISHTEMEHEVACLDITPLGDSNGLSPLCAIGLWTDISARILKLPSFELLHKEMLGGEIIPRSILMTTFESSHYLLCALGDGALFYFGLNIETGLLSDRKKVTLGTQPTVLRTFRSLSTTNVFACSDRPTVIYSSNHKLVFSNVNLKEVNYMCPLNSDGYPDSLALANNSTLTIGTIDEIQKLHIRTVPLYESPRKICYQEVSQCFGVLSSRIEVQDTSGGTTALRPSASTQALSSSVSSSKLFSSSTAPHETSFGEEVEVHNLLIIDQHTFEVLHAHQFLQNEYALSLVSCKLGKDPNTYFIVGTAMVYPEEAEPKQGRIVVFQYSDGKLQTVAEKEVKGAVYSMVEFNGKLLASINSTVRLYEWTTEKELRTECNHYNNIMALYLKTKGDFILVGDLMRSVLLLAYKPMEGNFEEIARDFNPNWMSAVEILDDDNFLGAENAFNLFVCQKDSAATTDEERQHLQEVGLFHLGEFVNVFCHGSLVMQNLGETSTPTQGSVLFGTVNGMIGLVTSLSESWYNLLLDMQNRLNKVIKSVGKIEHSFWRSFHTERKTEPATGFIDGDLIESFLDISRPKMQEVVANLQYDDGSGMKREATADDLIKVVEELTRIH
T2 sequence (Q96SW2 whole entry partner): as the sequence (Q96SW2 whole entry) above
T2 sequence (Q16531 2-1140 partner limits assumed): as the sequence (Q16531 2-1140 partner limits assumed) above
T2 sequence (Q13422 whole entry): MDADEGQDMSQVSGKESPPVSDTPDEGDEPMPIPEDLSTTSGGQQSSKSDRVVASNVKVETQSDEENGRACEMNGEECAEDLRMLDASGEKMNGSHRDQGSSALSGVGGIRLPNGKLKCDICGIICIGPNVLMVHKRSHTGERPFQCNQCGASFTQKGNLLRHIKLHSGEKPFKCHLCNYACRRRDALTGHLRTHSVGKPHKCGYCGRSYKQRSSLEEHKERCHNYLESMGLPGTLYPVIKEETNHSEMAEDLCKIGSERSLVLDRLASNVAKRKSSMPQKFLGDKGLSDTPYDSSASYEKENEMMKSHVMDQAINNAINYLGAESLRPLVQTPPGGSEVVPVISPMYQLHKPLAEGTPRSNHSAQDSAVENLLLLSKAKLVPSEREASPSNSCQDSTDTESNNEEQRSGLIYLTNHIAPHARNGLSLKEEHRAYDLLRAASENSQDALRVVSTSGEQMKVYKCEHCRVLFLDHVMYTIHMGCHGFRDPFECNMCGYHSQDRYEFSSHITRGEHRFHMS

Compound | IC50 (CRBN-DDB1; [4]) | DC50 (GSPT1 [1]; [5]) | other results
Cc1c(Cl)ccc(NC(=O)OCc2ccc3c(c2)C(=O)N(C2CCC(=O)NC2=O)C3)c1F (centres unmarked) [Compound 180] | – | – | IC50 (CRBN-DDB1): 100 to 1000 nM; DC50 (GSPT1 [1]; [3]): 30 to 300 nM
CCc1ccc(F)c(NC(=O)OCc2ccc3c(c2)C(=O)N(C2CCC(=O)NC2=O)C3)c1 (centres unmarked) [Compound 210, (2-(2,6-dioxopiperidin-3-yl)-3-oxoisoindolin-5-yl)methyl (5-ethyl-2-fluorophenyl)carbamate] | < 100 nM | > 300 nM | –
O=C1CCC(N2Cc3ccc(COC(=O)N[C@H]4C[C@H](c5ccccc5)C4)cc3C2=O)C(=O)N1 (some centres unmarked) [Compound 159, (2-(2,6-dioxopiperidin-3-yl)-3-oxoisoindolin-5-yl)methyl((1r,3r)-3-phenylcyclobutyl)carbamate] | 100 to 1000 nM | 30 to 300 nM | –
Cc1cc(C)nc(NC(=O)OCc2ccc3c(c2)C(=O)N(C2CCC(=O)NC2=O)C3)c1 (centres unmarked) [Compound 161, (2-(2,6-dioxopiperidin-3-yl)-3-oxoisoindolin-5-yl)methyl (4,6-dimethylpyridin-2-yl)carbamate] | 100 to 1000 nM | > 300 nM | –
CC1(c2ccc(NC(=O)OCc3ccc4c(c3)C(=O)N(C3CCC(=O)NC3=O)C4)nc2)CC1 (centres unmarked) [Compound 188] | – | – | IC50 (CRBN-DDB1): 100 to 1000 nM; DC50 (GSPT1 [1]; [3]): < 30 nM
CC(C)(C)OC(=O)C12CC(NC(=O)OCc3ccc4c(c3)C(=O)N(C3CCC(=O)NC3=O)C4)(C1)C2 (centres unmarked) [Compound 224, tert-butyl 3-((((2-(2,6-dioxopiperidin-3-yl)-3-oxoisoindolin-5-yl)methoxy)carbonyl)amino)bicyclo[1.1.1]pentane-1-carboxylate] | 100 to 1000 nM | 30 to 300 nM | –
Cc1cccc(NC(=O)OCc2ccc3c(c2)C(=O)N(C2CCC(=O)NC2=O)C3)c1 (centres unmarked) [Compound 160, (2-(2,6-dioxopiperidin-3-yl)-3-oxoisoindolin-5-yl)methyl m-tolylcarbamate] | 100 to 1000 nM | > 300 nM | –
O=C1CCC(N2Cc3ccc(COC(=O)N[C@H]4C[C@@H](c5ccccc5)C4)cc3C2=O)C(=O)N1 (some centres unmarked) [Compound 158, (2-(2,6-dioxopiperidin-3-yl)-3-oxoisoindolin-5-yl)methyl ((1s,3s)-3-phenylcyclobutyl)carbamate] | < 100 nM | > 300 nM | –
O=C1CCC(N2Cc3ccc(COC(=O)Nc4c(F)ccc(Cl)c4F)cc3C2=O)C(=O)N1 (centres unmarked) [Compound 178, (2-(2,6-dioxopiperidin-3-yl)-3-oxoisoindolin-5-yl)methyl (3-chloro-2,6-difluorophenyl)carbamate] | 100 to 1000 nM | > 300 nM | –
O=C1CCC(N2Cc3ccc(COC(=O)NC4(c5ccccc5)CC4)cc3C2=O)C(=O)N1 (centres unmarked) [Compound 171, (2-(2,6-dioxopiperidin-3-yl)-3-oxoisoindolin-5-yl)methyl (1-phenylcyclopropyl)carbamate] | 100 to 1000 nM | > 300 nM | –
Cc1cc(NC(=O)OCc2ccc3c(c2)C(=O)N(C2CCC(=O)NC2=O)C3)ccc1Cl (centres unmarked) [Compound 165, (2-(2,6-dioxopiperidin-3-yl)-3-oxoisoindolin-5-yl)methyl (4-chloro-3-methylphenyl)carbamate] | 100 to 1000 nM | < 30 nM | –
O=C1CCC(N2Cc3ccc(COC(=O)Nc4ccc(C5CCC5)cn4)cc3C2=O)C(=O)N1 (centres unmarked) [Compound 181, (2-(2,6-dioxopiperidin-3-yl)-3-oxoisoindolin-5-yl)methyl (5-cyclobutylpyridin-2-yl)carbamate] | 100 to 1000 nM | 30 to 300 nM | –
Cc1ccc(NC(=O)OCc2ccc3c(c2)C(=O)N(C2CCC(=O)NC2=O)C3)cc1 (centres unmarked) [Compound 162, (2-(2,6-dioxopiperidin-3-yl)-3-oxoisoindolin-5-yl)methyl p-tolylcarbamate] | 100 to 1000 nM | > 300 nM | –
CC(C)c1ccc(F)c(NC(=O)OCc2ccc3c(c2)C(=O)N(C2CCC(=O)NC2=O)C3)c1 (centres unmarked) [Compound 205, (2-(2,6-dioxopiperidin-3-yl)-3-oxoisoindolin-5-yl)methyl (2-fluoro-5-isopropylphenyl)carbamate] | 100 to 1000 nM | 30 to 300 nM | –
CC(C)(C)c1ccc(NC(=O)OCc2ccc3c(c2)C(=O)N(C2CCC(=O)NC2=O)C3)cn1 (centres unmarked) [Compound 43] | – | – | IKZF1 degradation (IKZF1 (Ikaros)): A; GSPT1 degradation (GSPT1 [2]): F (F represents degradation at 0.3 μM (>90%))
CC(C)(C)N1CC(NC(=O)OCc2ccc3c(c2)C(=O)N(C2CCC(=O)NC2=O)C3)C1 (centres unmarked) [Compound 172, (2-(2,6-dioxopiperidin-3-yl)-3-oxoisoindolin-5-yl)methyl (1-(tert-butyl)azetidin-3-yl)carbamate] | 100 to 1000 nM | > 300 nM | –
O=C1CCC(N2Cc3ccc(COC(=O)Nc4cc(OC(F)F)c(F)cc4F)cc3C2=O)C(=O)N1 (centres unmarked) [Compound 218, (2-(2,6-dioxopiperidin-3-yl)-3-oxoisoindolin-5-yl)methyl(5-(difluoromethoxy)-2,4-difluorophenyl) carbamate] | < 100 nM | > 300 nM | –
CC(C)(C)OC(=O)NC12CC(NC(=O)OCc3ccc4c(c3)C(=O)N(C3CCC(=O)NC3=O)C4)(C1)C2 (centres unmarked) [Compound 196, tert-butyl((2-(2,6-dioxopiperidin-3-yl)-3-oxoisoindolin-5-yl)methyl)bicyclo[1.1.1]pentane-1,3-diyldicarbamate] | < 100 nM | > 300 nM | –
O=C1CCC(N2Cc3ccc(COC(=O)Nc4cc(F)cc5c4OCC5)cc3C2=O)C(=O)N1 (centres unmarked) [Compound 187, (2-(2,6-dioxopiperidin-3-yl)-3-oxoisoindolin-5-yl)methyl(5-fluoro-2,3-dihydrobenzofuran-7-yl) carbamate] | < 100 nM | > 300 nM | –
